In patent US20250332173A1, “COMPOUNDS AND METHODS FOR MODULATING NUCLEIC ACID SPLICING” (REMIX THERAPEUTICS INC., priority 2021, published 2025) one finds IC50 data, which are given here for ten compounds.

What all share (assay type): cell-based, human
Test [1] concerns SMN2 mRNA. The test can be described thus: RT-qPCR splicing assay, SMN2 canonical junction (CJ) mRNA. To be noted: Homo sapiens; canonical junction qPCR panel, Table 5; read-out: SMN2 (decrease in CJ mRNA levels, IC50). The method, boiled down: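 A673 cells (DMEM/10% FBS) or K562 cells (IMDM/10% FBS) were treated 24 h at 37° C. with 11-point 3-fold dilutions (top 10 uM, ≤0.25% DMSO). Canonical-junction mRNA was quantified in lysates by RT-qPCR, normalized to GAPDH, GUSB or PPIA.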

The test system of test [2] is MYB. The test can be described thus: HiBiT protein abundance assay, MYB HiBiT K562 cell line. As to conditions: HiBiT K562 cell line, 24 hours, top dose 10 μM; read-out: Effect on protein abundance, MYB (IC50 category). The gist of the method:
(§1)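 K562 knock-in lines with endogenous HiBiT-tagged target, 10,000 cells/well in IMDM + FBS, treated 24 h at 37° C with 10-point 3-fold dilutions (top 10 μM final; DMSO ≤0.25%). Lytic Nano-Glo HiBiT luminescence normalized to untagged K562 baseline and DMSO controls; IC50 = concentration giving 50% abundance via four-parameter fit.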
(With HiBiT, luminescence reflects the tagged protein that the partner subunit can reach.)

The subject of test [3] is HTT. In words: HiBiT protein abundance assay, HTT HiBiT K562 cell line. To be noted: HiBiT K562 cell line, 24 hours, top dose 10 μM; read-out: Effect on protein abundance, HTT (IC50 category). The gist of the method: as §1
For test [4], the system named is Target C. The test can be described thus: HiBiT protein abundance assay, Target C (Promega Nano-Glo HiBiT Lytic Detection System, knock-in K562 cell line). As to conditions: Homo sapiens, K562, 24 h, HiBiT K562 cell line, 24 hours, top dose 10 μM; read-out: Effect on protein abundance, Target C (IC50 category). The gist of the method: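 Knock-in K562 cells carrying HiBiT-tagged Target C, 10,000 per well, treated 24 h at 37 °C with 10-point threefold dilutions (top 10 μM final, ≤0.25% DMSO). Lytic HiBiT luminescence read; response normalised to unmodified K562 and DMSO controls, four-parameter fit interpolated at 50% for IC50.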

What is called IC50 is the concentration needed to halve the response being measured. `Cc1cn2cc(-c3cc(O)c4c(=O)n(C5CCNCC5)ccc4n3)cc(F)c2n1` [Compound 1448]: the IC50 in test [1] is below 0.1 µM; in test [2] it was 0.1 to 1 µM; in test [3], 0.1 to 1 µM; in test [4], 0.1 to 1 µM.

`Cc1c(O)c(-c2ccc3c(=O)n([C@H]4CCNC4)ccc3n2)cc2cn(C)nc12` [Compound 1449, 2-(6-hydroxy-2,7-dimethyl-indazol-5-yl)-6-[(3S)-pyrrolidin-3-yl]-1,6-naphthyridin-5-one]: the IC50 in test [1] was below 0.1 µM; in test [2], 0.1 to 1 µM; in test [3] it was 1 to 10 µM; in test [4] it was 1 to 10 µM.

As to `Cc1c(O)c(-c2ccc3c(=O)n([C@@H]4CCNC4)ccc3n2)cc2cn(C)nc12` [Compound 1450, 2-(6-hydroxy-2,7-dimethyl-indazol-5-yl)-6-[(3R)-pyrrolidin-3-yl]-1,6-naphthyridin-5-one], the IC50 is below 0.1 µM in test [1], 0.1 to 1 µM in test [2], 1 to 10 µM in test [3] and 1 to 10 µM in test [4].

As to `Cn1cc2cc(-c3ccc4c(=O)n([C@H]5CCNC5)ccc4n3)c(O)c(F)c2n1` [Compound 1451, 2-(7-fluoro-6-hydroxy-2-methyl-indazol-5-yl)-6-[(3S)-pyrrolidin-3-yl]-1,6-naphthyridin-5-one], the IC50 in test [1] is below 0.1 µM; in test [2], 0.1 to 1 µM; in test [3], 0.1 to 1 µM; in test [4], 0.1 to 1 µM.

On to `Cn1cc2cc(-c3ccc4c(=O)n([C@@H]5CCNC5)ccc4n3)c(O)c(F)c2n1` [Compound 1452, 2-(7-fluoro-6-hydroxy-2-methyl-indazol-5-yl)-6-[(3R)-pyrrolidin-3-yl]-1,6-naphthyridin-5-one], for which the IC50 in test [1] is below 0.1 µM; in test [2] it was 0.1 to 1 µM; in test [3], 0.1 to 1 µM; in test [4] it was 0.1 to 1 µM.

Consider `Cc1c(O)c(-c2ncc3c(=O)n([C@@H]4C[C@@H](C)N[C@@H](C)C4)ccc3n2)cc2cn(C)nc12` [Compound 1453, 6-[(2S,6R)-2,6-dimethyl-4-piperidyl]-2-(6-hydroxy-2,7-dimethyl-indazol-5-yl)pyrido[4,3-d]pyrimidin-5-one], for which the IC50 in test [1] was below 0.1 µM; in test [2] it was 0.1 to 1 µM; in test [3], 1 to 10 µM; in test [4], above 10 µM.

On to `Cc1c(O)c(-c2ncc3c(=O)n(C4C[C@@H](C)N[C@H](C)C4)ccc3n2)cc2cn(C)nc12` (stereo partly drawn) [Compound 1454, 6-[(2R,6R)-2,6-dimethyl-4-piperidyl]-2-(6-hydroxy-2,7-dimethyl-indazol-5-yl)pyrido[4,3-d]pyrimidin-5-one], for which the IC50 in test [1] was below 0.1 µM; in test [2] it was 0.1 to 1 µM; in test [3], 0.1 to 1 µM; in test [4], 1 to 10 µM.

For `Cc1c(O)c(-c2ncc3c(=O)n(C4C[C@H](C)N[C@@H](C)C4)ccc3n2)cc2cn(C)nc12` (stereo partly drawn) [Compound 1455, 6-[(2S,6S)-2,6-dimethyl-4-piperidyl]-2-(6-hydroxy-2,7-dimethyl-indazol-5-yl)pyrido[4,3-d]pyrimidin-5-one], the IC50 in test [1] is below 0.1 µM; in test [2], below 0.1 µM; in test [3], 0.1 to 1 µM; in test [4], 0.1 to 1 µM.

Turning to `Cc1cn2cc(-c3cc(F)c4c(=O)n([C@@H]5CNC[C@H]5F)ccc4c3)cc(F)c2n1` [Compound 1456], the IC50 is 0.1 to 1 µM in test [1], 1 to 10 µM in test [2], 1 to 10 µM in test [3] and above 10 µM in test [4].

In the case of `Cc1cn2cc(-c3ncc4c(=O)n([C@@H]5CCNC6(CC6)C5)ccc4n3)cc(F)c2n1` [Compound 1457, 6-[(7R)-4-azaspiro[2.5]octan-7-yl]-2-(8-fluoro-2-methyl-imidazo[1,2-a]pyridin-6-yl)pyrido[4,3-d]pyrimidin-5-one], the IC50 was below 0.1 µM in test [1], 0.1 to 1 µM in test [2], 0.1 to 1 µM in test [3] and 1 to 10 µM in test [4].
